From patent US20120270786A1, “INTESTINE AND MUSCLE RECOVERY” (I.N.R.A., priority 2009, published 2012)
Marks after values point to notes of the source that are not given here.

What was measured:
Format in all cases: in vivo, rat
[1] = test system: Tibialis anterior, gastrocnemius and EDL muscle masses; experiment: Skeletal muscle mass recovery after 48 h starvation and 24 h refeeding
Description: (§1) Young male Wistar rats (50-60 g) were obtained from Charles River (L'Arbresle, France) and maintained in a temperature controlled room (22±1° C.) with a 12 h light/12 h dark cycle. They were given free access to a standard rodent diet (A03; UAR, Epernay sur Orge, France) and to water during a 5 days acclimatization period. Three experiments were conducted. (1) In the first experiment, rats were fed ad libitum or fasted for 1 or 2 days. At the end of the fasting period, rats were anesthetized with intraperitoneal injection of urethane (1.7 g/kg body weight, Sigma Aldrich, Lyon, France) and sacrificed. (2) In the second experiment, animals were randomly divided into control and GLP-2 treated groups (n=26-30 per group). Injections of saline (400 μL) or GLP-2 (20 μg/400 μL of saline) every 12 h started at day 0 and continued until the end of the experiment. At day 4, half of each group was deprived of food for 2 days. At day 6, animals were sacrificed as described. (3) In the last experiment, rats were allocated as described in experiment 2. Control and GLP-2 treated groups (n=20 per group) were divided into 2 groups of fed (n=5) and starved rats (n=15). Saline and GLP-2 injections continued until the sacrifice of the rats. At day 6, 5 rats from the fed and the 48 h-fasted groups treated or not with GLP-2 were sacrificed as described. The remaining fasted animals from the control and GLP-2 treated groups were refed ad libitum from day 6 for 6 or 24 h. After refeeding, rats were sacrificed as described.
(§2) The entire small intestine was rapidly excised, rinsed three times with ice-cold PBS, blotted and weighed. Ten cm caudal to the pyloric sphincter and ten cm cranial to the ileo-caecal junction were taken and discarded. Jejunum and ileum were excised, weighed, and divided in small pieces of 5 cm. The first piece was immediately processed for cathepsin activities. The remaining pieces were frozen in liquid nitrogen, and stored at −80° C. until further analyses. In experiment 3, skeletal muscles (EDL, gastrocnemius and tibialis anterior) were also carefully dissected and weight.

Cathepsin B = Cathepsin B activity in the ileum; conditions: compared with untreated rats, P<0.002
Description: (§3) Young male Wistar rats (50-60 g) were obtained from Charles River (L'Arbresle, France) and maintained in a temperature controlled room (22±1° C.) with a 12 h light/12 h dark cycle. They were given free access to a standard rodent diet (A03; UAR, Epernay sur Orge, France) and to water during a 5 days acclimatization period. Three experiments were conducted. (1) In the first experiment, rats were fed ad libitum or fasted for 1 or 2 days. At the end of the fasting period, rats were anesthetized with intraperitoneal injection of urethane (1.7 g/kg body weight, Sigma Aldrich, Lyon, France) and sacrificed. […]
(§4) The five cm pieces of jejunum and/or ileum were immediately homogenized using a polytron homogenizer in a 10 mmol/L phosphate buffer (pH 7.4) containing 50 mmol/L KCl, 1 mmol/L EDTA and 0.25 mol/L sucrose as described previously.^30 Homogenates were then centrifuged at 1,000 g (10 minutes, 4° C.). […] Cathepsin B and cathepsin B+L+S activities were determined using the fluorogenic substrates Z-arginine-arginine-AMC (ZAA-AMC, 50 μmol/L, Sigma), Z-phenylalanine-arginine-AMC (ZPA-AMC, 30 μmol/L, Sigma), respectively.^30 Neutral pH reducing the cathepsin L activity, the bulk of the cathepsin B+L+S activity measured with ZPA-AMC at pH 7.0 reflects the cathepsin B+S activity. […] Fluorescence was measured continuously at 380 nm excitation and 440 nm emission wavelengths. […]

[2] = test system: Cathepsin (B, B+S, B+L+S and D); experiment: Cathepsin activities in the jejunum of fed and starved rats
Description: as §3, §4

[3] = test system: starvation-induced skeletal muscle atrophy; experiment: Starvation-induced skeletal muscle atrophy (experiment 3); conditions: for EDL mass / gastrocnemius mass / tibialis anterior mass: GLP-2, mean ± SEM, n=5
Description: as §1, §2
(§5) Data are expressed as means±SEM. One-way or two-way ANOVA were used to address for fasting effect in experiment 1 and for fasting and GLP-2 effects experiment 2 and 3. A posteriori PLSD Fisher's test was performed in order to assess for differences among groups. P values <0.05 were considered statistical significance and P values <0.10 were considered statistical tendency.

small intestinal mass = experiment: Small intestinal mass recovery after 48 h starvation and 6 or 24 h refeeding
Description: as §1, §2

[4] = test system: starvation-induced body weight loss and intestine atrophy; experiment: Starvation-induced body weight loss and intestine atrophy in saline- or GLP-2-injected rats (experiment 2); conditions: for Body weight / Ileum mass / Jejunum mass / Small intestine mass: GLP-2 20 μg every 12 h, mean ± SEM
Description: as §1, §2, §5

proteasome = experiment: Peptidase activities of the proteasome in the small intestine of fed and starved rats
Description: as §3
Proteins from pieces of jejunum and/or ileum were homogenized using a polytron homogenizer, in ice-cold buffer (pH 7.5) containing 50 mmol/L Tris/HCl, 5 mmol/L MgCl2, 250 mmol/L sucrose, 10 mmol/L ATP, 1 mmol/L DTT, 10 μg/mL aprotinin, 10 μg/mL leupeptin, 10 μg/mL antipain, 10 μg/mL pepstatin A, and 0.2 mmol/L phenylmethylsulphonylfluoride (PMSF). […] The protein content of the proteasome preparation was determined using the Biorad protein assay following the manufacturer instructions. […] The accumulation of AMC at 37° C. during 45 minutes was measured continuously as described for cathepsin activities measurements. The difference between arbitrary fluorescence units recorded with or without 40 μmol/L […]of the proteasome inhibitor MG132 (Affiniti) in the reaction medium was calculated. […]

Cathepsin B+L+S = Cathepsin B+L+S activity in the ileum; conditions: compared with untreated rats, P<0.0005
Description: as §3, §4

[5] = test system: villus height and crypt depth in the jejunum and ileum; experiment: Histologic and morphometric measurements of villus height and crypt depth in jejunum and ileum; conditions: GLP-2 treatment
Description: as §1
Tissue samples from jejunum and ileum were fixed in 10% formaldehyde buffered with Na2CO3 (10 g/L) and processed for villus height and crypt depth measurements. Treatment designation of slides was blinded at the time of measurement.

[6] = GLP-2 effect, two-way ANOVA, P<0.0001

HGDGSFSDEMNTILDNLATRDFINWLIQTKITD (Rat GLP-2 sequence with an Ala-->Gly exchange in position 2) [Rat recombinant GLP-2, [Ala] in position 2 substituted by [Gly] to make the peptide resistant to DPP IV degradation]
EDL muscle recovery ([1]; after 24 h of refeeding): totally recovered
Tibialis anterior muscle recovery ([1]; after 24 h of refeeding): totally recovered
gastrocnemius atrophy ([1]; after 24 h of refeeding, compared to GLP-2 treated fed rats, P<0.05): 9%
skeletal muscle recovery ([1]; refeeding after 48 h starvation): enhanced
decrease of cathepsin B activity (Cathepsin B): −43%
cathepsin activities [2]: blocked the increase
EDL mass ([3]; fed rats): 45.7 ± 0.9^a mg
gastrocnemius mass ([3]; fed rats): 0.513 ± 0.013^a g
tibialis anterior mass ([3]; fed rats): 195.7 ± 5.0^a mg
skeletal muscle loss (tibialis anterior, gastrocnemius, EDL) ([3]; following 2 days of starvation): did not prevent
EDL mass ([3]; starved rats (48 h)): 37.2 ± 0.9^b mg
gastrocnemius mass ([3]; starved rats (48 h)): 0.415 ± 0.006^b g
tibialis anterior mass ([3]; starved rats (48 h)): 156.6 ± 2.0^b mg
small intestinal atrophy (small intestinal mass; after 6 h of refeeding, P<0.001): 15%
small intestinal atrophy (small intestinal mass; after 24 h of refeeding): totally absent
small intestine recovery (small intestinal mass; after 24 h of refeeding, GLP-2 treated rats): totally recovered
recovery of the small intestinal mass (small intestinal mass; refed rats after 48 h starvation, compared to saline injected animals): accelerated recovery
atrophy of the jejunum ([4]; GLP-2-treated starved rats vs. saline injected-fed rats, P<0.005): −12%
increase of jejunal mass [4, 6]: 21%
increase of total small intestinal mass [4, 6]: 22%
increase of ileal mass ([4]; GLP-2 effect, two-way ANOVA, P<0.005): 17.5%
starvation-induced loss of body weight ([4]; GLP-2 treated group, starved vs fed): −22%
whole small intestine and ileum mass ([4]; GLP-2 treated-starved rats compared with saline injected-fed rats): similar
Body weight ([4]; fed rats, day 6): 112.5 ± 1.7^a g
Ileum mass ([4]; fed rats): 1.24 ± 0.07^b g
Jejunum mass ([4]; fed rats): 3.45 ± 0.08^b g
Small intestine mass ([4]; fed rats): 5.57 ± 0.17^b g
Body weight ([4]; rats starved 2 days): 87.2 ± 1.0^b g
Ileum mass ([4]; rats starved 2 days): 1.02 ± 0.05^a g
Jejunum mass ([4]; rats starved 2 days): 2.62 ± 0.09^d g
Small intestine mass ([4]; rats starved 2 days): 4.56 ± 0.11^a g
reduction of the atrophy of the small intestine induced by starvation ([4]; starved rats receiving GLP-2): 16%
Peptidase activities of the proteasome (proteasome; jejunum or ileum, daily administration of GLP-2): not modified
increase of the chymotrypsin- and the trypsin-like activities (proteasome; jejunum, following fasting): did not block the increase
decrease of cathepsin B+L+S activity (Cathepsin B+L+S): −50%
villus height in the ileum [5]: no effect
crypt depth in the ileum ([5]; following fasting): did not inhibit the reduction
crypt depth in the jejunum ([5]; following starvation): blocked the decrease
reduction of the villus height in the jejunum ([5]; following starvation): −13%
